# Values quoted from earlier work in US20050158747A1, “CFTR modifier genes and expressed polypeptides useful in treating cystic fibrosis and methods and products for detecting and/or identifying same” (priority 2003, published 2005).
# Assays:
# [1] = tested on: purinergic receptors in the airway epithelium; conditions: in vitro studies
# sodium (Na^+) channels = conditions: aerosolized; initial results
SMILES,chloride (Cl^−) secretion [1],"rate of disease progression, as measured by lung function tests (sodium (Na^+) channels)",safety in trials (sodium (Na^+) channels)
O=c1ccn([C@@H]2O[C@H](COP(=O)(O)OP(=O)(O)OP(=O)(O)O)[C@@H](O)[C@H]2O)c(=O)[nH]1 [UTP],can stimulate chloride (Cl^−) secretion,,
N=C(N)NC(=O)c1nc(Cl)c(N)nc1N [amiloride],,slight change in the rate of disease progression,safe
Nc1ncnc2c1ncn2[C@@H]1O[C@H](COP(=O)(O)OP(=O)(O)OP(=O)(O)O)[C@@H](O)[C@H]1O [ATP],can stimulate chloride (Cl^−) secretion,,
